How the values were obtained:
[1] = tested on: HLA-A*2402 transgenic mice; test: CTL induction in vivo in HLA-A*2402 transgenic mice (immunogenicity, Cr51 cytotoxic assay); parameters: key to Immunogenicity: (−) means that none of the mice vaccinated with the corresponding native peptides develops a specific immune response; (+) that less to 50% of vaccinated mice responded; (++) that more that 50% responded; key to Immunogenicity (class): −: (-) means that none of the mice vaccinated with the corresponding native peptides develops a specific immune response; (+) that less to 50% of vaccinated mice responded; (++) that more that 50% responded; conditions: for Immunogenicity (X/Y): X mice develop a specific response for a total of Y mice vaccinated / Immunogenicity (class): Table 7, mice vaccinated with the native or modified peptide; for Immunogenicity (class): share of mice responding; for Immunogenicity: Table 5, mice vaccinated with 100 μg native peptide in IFA, share of mice with specific immune response
Description: FIG. 1: Panels 1A-1F of FIG. 1 show immunogenicity of HLA-A*2402 cryptic peptides. HLA-A*2402 transgenic mice were vaccinated with the cryptic peptides following the described protocol and generated CTL were tested against T2-A24 targets loaded with peptide as indicated (NR non relevant peptide). Percentage of specific lysis was determined as: Lysis=(Experimental Release−Spontaneous Release)/(Maximal Release−Spontaneous Release)×100. Four CTL dilutions, corresponding to four CTL/target cells ratio were tested.
(§1) The transgenic mice used in the described experiments were obtained by crossing HLA-A24 transgenic mice previously described (Barra et al., 1993) and H2 Kb^− H2 Db^− knock out mice, transgenic for both human β2 microglobulin and CD8α chain (Perarnau et al., 1999).
Mice were injected subcutaneously with 100 μg of peptide emulsified in Incomplete Freund's Adjuvant (IFA) in the presence of 150 μg of the I-A^b restricted HBVcore128 T helper epitope (TPPAYRPPNAPIL, SEQ ID NO: 112). After 15 days, 5×10^7 spleen cells were stimulated twice in vitro with peptide (10 μM), at 6 days interval. On day 13 of culture, the bulk responder populations were tested for specific cytotoxicity against target cells expressing HLA-A*2402 and loaded with the same peptide.
(§2) Targets were labelled with 100 μCi of Cr^51 for 60 min, plated in 96-well V-bottomed plates (3×10^3 cell/well in 100 μL of RPMI 1640 medium) and, when necessary, pulsed with optimized or native peptides (1 μM) at 37° C. for 2 hours. Four dilutions of effector cells were then added in the wells and incubated at 37° C. for 4 hours. Percentage of specific lysis was determined as: Lysis=(Experimental Release−Spontaneous Release)/(Maximal Release−Spontaneous Release)×100.

HLA-A*2402 = HLA-A*2402 (Homo sapiens, UniProt P04439, D101N/D140Y/D185E/E176V/E190D/F33S/G103R/G107R/I119L/I121M/I306V/K335N/L105A/L180Q/L300P/N151K/N90K/Q86E/Q94H/R106L/R138H/R89G/T104I/T345S/V100E/W191G/Y123F); test: Measurement of peptide relative affinity to HLA-A*2402 (surface expression on T2-A24 cells); assay type: cell-based; conditions: for RA (Relative Affinity): T2-A24 cells, 16 hours at 37° C., relative to reference peptide standard A24, concentration inducing 30% of HLA-A*2402 expression
Description: Measurement of Peptide Relative Affinity to HLA-A*2402.
The protocol used has been described previously (Rohrlich et al., 2003). Briefly, T2-A24 cells were incubated at 37° C. for 16 hours with peptides concentrations ranging from 100 μM to 0.1 μM, and then stained with 0041HA monoclonal antibody (mAb)(One Lambda, Inc.) to quantify the surface expression of HLA-A*2402. For each peptide concentration, the HLA-A*2402 specific staining was calculated as the percentage of staining obtained with 100 μM of the reference peptide standard A24 (AYIDNYNKF, SEQ ID NO: 111). The relative affinity (RA) was determined as: RA=(Concentration of each peptide that induces 30% of HLA-A*2402-expression/Concentration of the reference peptide that induces 30% of HLA-A*2402 expression).

[2] = tested on: HLA-A*2402 transgenic mice; test: Cross-recognition assay: CTL from mice vaccinated with optimized peptide tested on targets loaded with native peptide; assay type: in vivo; conditions: Table 7, CTL of mice vaccinated with the optimized peptide
Description: FIG. 2: Panels 2A-2F of FIG. 2 show immunogenicity of HLA-A*2402 restricted optimized cryptic peptides. HLA-A*2402 transgenic mice were vaccinated with the optimized peptide following the described protocol and generated CTL were tested against T2-A24 targets loaded with the optimized (immunogenicity), the corresponding native (native peptide cross recognition) or an irrelevant (NR) peptide as indicated. Percentage of specific lysis was determined as: Lysis=(Experimental Release−Spontaneous Release)/(Maximal Release−Spontaneous Release)×100. Four CTL dilutions, corresponding to four CTL/target cells ratio were tested.
as §1
Mice were injected subcutaneously with 100 μg of optimized peptide emulsified in Incomplete Freund's Adjuvant (IFA) in the presence of 150 μg of the I-A^b restricted HBVcore128 T helper epitope (TPPAYRPPNAPIL, SEQ ID NO: 112). After 15 days, 5×10^7 spleen cells were stimulated firstly in vitro with the optimized peptide (10 μM), and secondly on day 6 of culture with the corresponding native peptide. On day 13, the bulk responder populations were tested for specific cytotoxicity against targets cells expressing HLA-A*2402 and loaded with the optimized, the native or an irrelevant peptide.
as §2

| Sequence | Immunogenicity in HLA-A24 transgenic mice (in words) [1] | Immunogenicity (X/Y): X mice develop a specific response for a total of Y mice vaccinated [1] | Immunogenicity (class) [1] | RA (Relative Affinity) (HLA-A*2402) | Binding to HLA-A*2402 (in words) (HLA-A*2402) | Immunogenicity [1] | Native peptide cross recognition (X/Y): X mice develop a specific response for a total of Y mice vaccinated [2] | Native peptide cross recognition (class) [2] |
| --- | --- | --- | --- | --- | --- | --- | --- | --- |
| KYGVLLKTL (Optimized peptide derived from cryptic peptides of SEQ ID Nos 1 to 9) [TERT 403 K1L9] | developed peptide specific CTLs | 4/15 | + ((+) that less to 50% of vaccinated mice responded) |  |  |  |  |  |
| PYDGIPARE (Cryptic HLA-A2402 restricted peptide) [Her2/neu 922, native cryptic HLA-A*2402 restricted peptide] |  |  |  | − ((−) means RA > 100) |  |  |  |  |
| PYGCLLDHV (Cryptic HLA-A2402 restricted peptide) [Her2/neu 802] | immunogenic |  |  | + ((+) 5 < RA < 10) | binds to the HLA-A*2402 | ++ ((++) that more that 50% responded) |  |  |
| PYGKGWDLM (Cryptic HLA-A2402 restricted peptide) [EphA2 47, native cryptic HLA-A*2402 restricted peptide] |  | 0/6 | − |  |  | − | 7/9 | ++ ((++) that more that 50% responded) |
| PYGVLLKTH (Cryptic HLA-A2402 restricted peptide) [TERT 403, native cryptic HLA-A*2402 restricted peptide] |  | 0/3 | − | − ((−) means RA > 100) |  | − | 3/15 | + ((+) that less to 50% of vaccinated mice responded) |
| PYMRQFVAH (Cryptic HLA-A2402 restricted peptide) [TERT 770, native cryptic HLA-A*2402 restricted peptide] |  | 0/3 | − | +/− ((+/−) 10 < RA < 100) |  | − | 5/18 | + ((+) that less to 50% of vaccinated mice responded) |
| PYNYLSTDV (Cryptic HLA-A2402 restricted peptide) [Her2/neu 300, native cryptic HLA-A*2402 restricted peptide] |  | 0/3 | − | − ((−) means RA > 100) |  | − |  |  |
| PYVSRLLGI (Cryptic HLA-A2402 restricted peptide) [Her2/neu 780, native cryptic HLA-A*2402 restricted peptide] | non immunogenic | 0/8 | − |  | strongly binds | − | 3/9 | + ((+) that less to 50% of vaccinated mice responded) |
| PYWELSNHE (Cryptic HLA-A2402 restricted peptide) [EphA2 817, native cryptic HLA-A*2402 restricted peptide] |  | 0/3 | − |  |  | − | 2/3 | ++ ((++) that more that 50% responded) |
| RYDGIPARL (Optimized peptide derived from cryptic peptides of SEQ ID Nos 1 to 9) [Her2/neu 922 R1L9, modified peptide] |  | 0/9 | − |  |  |  |  |  |
| RYEFLWGPL (Optimized peptide derived from cryptic peptides of SEQ ID Nos 1 to 9) [MAGE 261 L9, modified peptide] |  | 0/9 | − |  |  |  |  |  |
| RYEFLWGPR (Cryptic HLA-A2402 restricted peptide) [MAGE 261, native cryptic HLA-A*2402 restricted peptide] |  | 0/3 | − | − ((−) means RA > 100) |  | − |  |  |
| RYGKGWDLL (Optimized peptide derived from cryptic peptides of SEQ ID Nos 1 to 9) [EphA2 47 R1L9] | developed peptide specific CTLs | 7/9 | ++ ((++) that more that 50% responded) |  |  |  |  |  |
| RYLVQVQAL (Optimized peptide derived from cryptic peptides of SEQ ID Nos 1 to 9) [EphA2 502 R1] | developed peptide specific CTLs | 3/3 | ++ ((++) that more that 50% responded) |  |  |  |  |  |
| RYMRQFVAL (Optimized peptide derived from cryptic peptides of SEQ ID Nos 1 to 9) [TERT 770 R1L9] | developed peptide specific CTLs | 12/18 | ++ ((++) that more that 50% responded) |  |  |  |  |  |
| RYNYLSTDL (Optimized peptide derived from cryptic peptides of SEQ ID Nos 1 to 9) [Her2/neu 300 R1L9, modified peptide] |  | 0/9 | − |  |  |  |  |  |
| RYVSRLLGI (Optimized peptide derived from cryptic peptides of SEQ ID Nos 1 to 9) [HER 780 R1] | developed peptide specific CTLs | 4/9 | + ((+) that less to 50% of vaccinated mice responded) |  |  |  |  |  |
| RYWELSNHL (Optimized peptide derived from cryptic peptides of SEQ ID Nos 1 to 9) [EphA2 817 R1L9] | developed peptide specific CTLs | 2/3 | ++ ((++) that more that 50% responded) |  |  |  |  |  |
| TYLVQVQAL (Cryptic HLA-A2402 restricted peptide) [EphA2 502, native cryptic HLA-A*2402 restricted peptide] |  | 0/3 | − |  |  | − | 2/3 | ++ ((++) that more that 50% responded) |

Reference: US8900600B2, “Identification, optimization and use of cryptic HLA-A24 epitopes for immunotherapy” (VAXON Biotech, priority 2009, dated 2014)
